In test [1] the target is T1, GPR55 (Homo sapiens, UniProt Q9Y2T6). In words: Dynamic mass redistribution (DMR), concentration-response. It counts as cell-based. More on the design: hIL-2Ra signal peptide (N); expressed in transfected cells. The settings on record: mean; for DMR assays Emax (peak or AUC): SEM and n (1-4). As to the method:
48 hr prior to parallel assaying, SNAP-tagged oGPCR cells were plated (10,000 cells/well) in fibronectin-coated 384-well Epic biosensor microplates (Corning) and poly-D-lysine coated white 384-well plates (for internalization assays). SNAP- GLP-1 receptor was plated alongside orphan receptor cells as an internal assay control for internalization assays. Receptor-expression was induced with 0.1 μg/ml doxycycline.
DMR assays provide a single integrated readout of ligand-dependent cellular response, utilizing an optical biosensor in specialized microplates to detect wavelength shifts of reflected light as it passes through the biosensor and the lower portion of the cell (∼150-200 nm). As a signal pathway agnostic approach, DMR assays are well-suited to the study of GPCRs ([Fang et al., 2008], [Schröder et al., 2011]). The mass redistribution response (Δ picometer (pm)) likely reflects a number of intracellular events, including cytoskeletal rearrangement, protein trafficking and receptor internalization. Orphan receptor-expressing cells were gently washed twice with assay buffer (HBSS with 1 mM CaCl2, 1 mM MgCl2, 20 mM HEPES, 0.01% pluronic F-68, pH 7.4) containing 0.1% DMSO and cells were equilibrated for 90 min at 22°C in the EPIC Benchtop (BT) System (Corning) to establish a stable DMR signal. After 3-5 min baseline recordings, peptides (10 μM) were added in duplicate wells using an electronic 384-channel Viaflo pipette (Integra Biosciences, Switzerland) and DMR responses were measured for 60 min at 22°C. 100 nM norepinephrine was included as an internal assay control to assess the cellular DMR response via endogenously-expressed adrenoceptors in the TREx 293 cells. Real-time data were processed using the BT to column converter MS-Excel macro (Corning) and analyzed in GraphPad Prism 7.0. DMR recordings in peptide screening experiments were buffer and solvent corrected and the area under the curve (AUC) was quantified. For subsequent validation experiments, peptides were diluted in assay buffer containing 0.1% DMSO and DMR assays were performed as above. […] Data represent mean ± standard error of the mean (SEM) from at least 3 biologically independent experiments.

The target of test [2] is T1, GPR55. In words: Real-time receptor internalization (TR-FRET), concentration-response. It counts as cell-based. On the set-up: hIL-2Ra signal peptide (N); expressed in transfected cells. Put shortly:
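Doxycycline-induced (0.1 μg/ml) SNAP-tagged receptor cells had surface receptors labeled with 100 nM Lumi4-Tb for 1 h at 37°C, then 100 μM fluorescein-O-acetic acid for 5 min. Peptide-induced internalization was recorded by TR-FRET for 60 min at 37°C as donor/acceptor emission ratio. Area under the curve gave concentration-response curves; mean ± SEM, ≥3 independent experiments.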
On the technique in general: Time-resolved FRET reads energy transfer from a long-lived donor to a nearby acceptor.

The mark [3] stands for this setting: receptor GPR55, SEM and n (2-4), read-out: DMR assays pEC50 (converted).
[4] abbreviates: receptor GPR55, mean, SEM and n (3-4), read-out: Internalization assays pEC50 (converted).
Where [5] appears, read: GPR55, SEM and n, read-out: pEC50, DMR (AUC) (converted).
Setting [6] is: GPR55, mean, SEM and n, read-out: pEC50, Internalization (AUC) (converted).
Setting [7] is: receptor GPR55, mean, SEM and n (3-4).

Residues, ends and D or L forms follow the SMILES beside them.

T1 sequence (Q9Y2T6 2-319 limits assumed): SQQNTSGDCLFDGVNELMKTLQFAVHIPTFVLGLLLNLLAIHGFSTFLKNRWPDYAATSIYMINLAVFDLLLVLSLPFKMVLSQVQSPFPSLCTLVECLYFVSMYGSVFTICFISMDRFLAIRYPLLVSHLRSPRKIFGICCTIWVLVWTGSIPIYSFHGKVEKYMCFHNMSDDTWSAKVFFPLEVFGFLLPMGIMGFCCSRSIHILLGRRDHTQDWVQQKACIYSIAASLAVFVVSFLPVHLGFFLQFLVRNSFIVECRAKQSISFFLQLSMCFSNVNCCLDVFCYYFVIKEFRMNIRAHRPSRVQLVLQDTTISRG

`CC(C)C[C@H](NC(=O)[C@H](C)NC(=O)CNC(=O)[C@H](CC(C)C)NC(=O)[C@H](CCCNC(=N)N)NC(=O)[C@@H](N)CCCCN)C(=O)N[C@@H](Cc1ccccc1)C(=O)N[C@@H](CC(N)=O)C(=O)N1CCC[C@H]1C(=O)N[C@@H](Cc1ccc(O)cc1)C(=O)N[C@@H](Cc1ccccc1)C(=O)N[C@@H](CC(=O)O)C(=O)N1CCC[C@H]1C(=O)N[C@@H](CC(C)C)C(=O)N[C@@H](CCC(N)=O)C(=O)N[C@@H](Cc1c[nH]c2ccccc12)C(=O)N[C@@H](CCCCN)C(=O)N[C@@H](CC(N)=O)C(=O)N[C@@H](CO)C(=O)N[C@@H](CC(=O)O)C(=O)N[C@@H](Cc1ccccc1)C(=O)N[C@@H](CCC(=O)O)C(=O)O` [143 resynthesized] (H-KRLGALFNPYFDPLQWKNSDFE-OH): the EC50 at GPR55 [1] (setting [3]) is 3160 nM; at GPR55 [2] (setting [4]), 6310 nM.

Consider `CC[C@H](C)[C@H](NC(=O)CNC(=O)[C@H](CC(=O)O)NC(=O)[C@H](CO)NC(=O)[C@@H](N)Cc1cnc[nH]1)C(=O)N[C@@H](Cc1ccccc1)C(=O)N[C@H](C(=O)N[C@@H](CC(=O)O)C(=O)N[C@@H](CO)C(=O)N[C@@H](Cc1ccc(O)cc1)C(=O)N[C@@H](CO)C(=O)N[C@@H](CCCNC(=N)N)C(=O)N[C@@H](Cc1ccc(O)cc1)C(=O)N[C@@H](CCCNC(=N)N)C(=O)N[C@@H](CCCCN)C(=O)N[C@@H](CCC(N)=O)C(=O)N[C@@H](CCSC)C(=O)N[C@@H](C)C(=O)N[C@H](C(=O)N[C@@H](CCCCN)C(=O)N[C@@H](CCCCN)C(=O)N[C@@H](Cc1ccc(O)cc1)C(=O)N[C@@H](CC(C)C)C(=O)N[C@@H](C)C(=O)N[C@@H](C)C(=O)N[C@H](C(=O)N[C@@H](CC(C)C)C(=O)NCC(=O)N[C@@H](CCCCN)C(=O)N[C@@H](CCCNC(=N)N)C(=O)N[C@@H](Cc1ccc(O)cc1)C(=O)N[C@@H](CCCCN)C(=O)N[C@@H](CCC(N)=O)C(=O)N[C@@H](CCCNC(=N)N)C(=O)N[C@H](C(=O)N[C@@H](CCCCN)C(=O)N[C@@H](CC(N)=O)C(=O)N[C@@H](CCCCN)C(N)=O)C(C)C)C(C)C)C(C)C)[C@@H](C)O` [168.1 (Phoenix)], for which the EC50 on GPR55 [1] (setting [3]) was 148 nM; at GPR55 [2] (Internalization assays pEC50), 0.123 nM.

Take `CC(C)C[C@H](NC(=O)[C@H](C)NC(=O)CNC(=O)[C@H](CC(C)C)NC(=O)[C@H](CCCNC(=N)N)NC(=O)[C@@H](N)CCCCN)C(=O)N[C@@H](Cc1ccccc1)C(=O)N[C@@H](CC(N)=O)C(=O)N1CCC[C@H]1C(=O)N[C@@H](Cc1ccc(O)cc1)C(=O)N[C@@H](Cc1ccccc1)C(=O)N[C@@H](CC(=O)O)C(=O)N1CCC[C@H]1C(=O)N[C@@H](CC(C)C)C(=O)N[C@@H](CCC(N)=O)C(=O)N[C@@H](Cc1c[nH]c2ccccc12)C(=O)N[C@@H](CCCCN)C(=O)N[C@@H](CC(N)=O)C(=O)N[C@@H](CO)C(=O)N[C@@H](CC(=O)O)C(=O)N[C@@H](Cc1ccccc1)C(=O)N[C@@H](CCC(=O)O)C(=O)O` [Chgb (511-532)] (H-KRLGALFNPYFDPLQWKNSDFE-OH): the EC50 is 2400 nM at GPR55 [1] (setting [5]) and 4680 nM at GPR55 [2] (setting [6]).

Take `CC[C@H](C)[C@H](NC(=O)[C@H](CC(=O)O)NC(=O)[C@@H](NC(=O)[C@H](Cc1ccc(O)cc1)NC(=O)[C@@H](NC(=O)CNC(=O)[C@H](CC(N)=O)NC(=O)[C@@H](NC(=O)[C@H](CC(C)C)NC(=O)[C@H](Cc1ccc(O)cc1)NC(=O)[C@H](CC(=O)O)NC(=O)[C@H](CC(C)C)NC(=O)[C@H](CCCNC(=N)N)NC(=O)[C@H](CO)NC(=O)[C@H](Cc1ccc(O)cc1)NC(=O)[C@H](CCCNC(=N)N)NC(=O)[C@@H](N)CCCCN)[C@@H](C)CC)[C@@H](C)CC)C(C)C)C(=O)O` [MANSC (415-431)] (H-KRYSRLDYLINGIYVDI-OH): the figures for the EC50 on GPR55 [1] (setting [5]) and at GPR55 [2] (setting [6]) were 3090 nM and 13500 nM, respectively.

Consider `CC[C@H](C)[C@H](NC(=O)CNC(=O)[C@H](CC(=O)O)NC(=O)[C@H](CO)NC(=O)[C@@H](N)Cc1c[nH]cn1)C(=O)N[C@@H](Cc1ccccc1)C(=O)N[C@H](C(=O)N[C@@H](CC(=O)O)C(=O)N[C@@H](CO)C(=O)N[C@@H](Cc1ccc(O)cc1)C(=O)N[C@@H](CO)C(=O)N[C@@H](CCCNC(=N)N)C(=O)N[C@@H](Cc1ccc(O)cc1)C(=O)N[C@@H](CCCNC(=N)N)C(=O)N[C@@H](CCCCN)C(=O)N[C@@H](CCC(N)=O)C(=O)N[C@@H](CCSC)C(=O)N[C@@H](C)C(=O)N[C@H](C(=O)O)C(C)C)[C@@H](C)O` [Peptide 168.5], for which, at GPR55 [1] (receptor GPR55), the “DMR assays Emax (peak or AUC)” value is on record as 31768. The figures for the EC50 at GPR55 [1] (setting [3]) and at GPR55 [2] (setting [4]) were 1 nM and 75900 nM, respectively. Further, the “Internalization assays Emax (AUC)” value on GPR55 [2] (setting [7]) stood at 17.8.

With `CC[C@H](C)[C@H](NC(=O)CNC(=O)[C@H](CC(=O)O)NC(=O)[C@H](CO)NC(=O)[C@@H](N)Cc1c[nH]cn1)C(=O)N[C@@H](Cc1ccccc1)C(=O)N[C@H](C(=O)N[C@@H](CC(=O)O)C(=O)N[C@@H](CO)C(=O)N[C@@H](Cc1ccc(O)cc1)C(=O)N[C@@H](CO)C(=O)N[C@@H](CCCNC(=N)N)C(=O)N[C@@H](Cc1ccc(O)cc1)C(=O)N[C@@H](CCCNC(=N)N)C(=O)N[C@@H](CCCCN)C(=O)N[C@@H](CCC(N)=O)C(=O)N[C@@H](CCSC)C(=O)N[C@@H](C)C(=O)N[C@H](C(=O)N[C@@H](CCCCN)C(=O)N[C@@H](CCCCN)C(=O)N[C@@H](Cc1ccc(O)cc1)C(=O)N[C@@H](CC(C)C)C(=O)N[C@@H](C)C(=O)N[C@@H](C)C(=O)N[C@H](C(=O)N[C@@H](CC(C)C)C(=O)NCC(=O)N[C@@H](CCCCN)C(=O)N[C@@H](CCCNC(=N)N)C(=O)N[C@@H](Cc1ccc(O)cc1)C(=O)N[C@@H](CCCCN)C(=O)N[C@@H](CCC(N)=O)C(=O)N[C@@H](CCCNC(=N)N)C(=O)N[C@H](C(=O)N[C@@H](CCCCN)C(=O)N[C@@H](CC(N)=O)C(=O)N[C@@H](CCCCN)C(=O)NCC(=O)N[C@@H](CCCNC(=N)N)C(=O)N[C@@H](CCCNC(=N)N)C(=O)N[C@H](C(=O)N[C@@H](C)C(=O)N[C@@H](Cc1ccc(O)cc1)C(=O)N[C@@H](CC(C)C)C(=O)O)[C@@H](C)CC)C(C)C)C(C)C)C(C)C)[C@@H](C)O` [Peptide 168.6], the EC50 at GPR55 [1] (setting [3]) is 331 nM; on GPR55 [2] (setting [4]), 0.115 nM.

In the case of `CC(C)C[C@H](NC(=O)[C@@H](N)CC(=O)O)C(=O)N[C@@H](CC(C)C)C(=O)N1CCC[C@H]1C(=O)O` [Peptide 213.1] (H-DLLP-OH), the figures for the EC50 at GPR55 [1] (setting [3]) and on GPR55 [2] (setting [4]) were 0.00724 nM and 195 nM, respectively.

With `C[C@H](NC(=O)[C@@H](N)Cc1c[nH]c2ccccc12)C(=O)N[C@@H](CCCNC(=N)N)C(=O)NCC(=O)N[C@@H](CS)C(=O)N[C@@H](CO)C(=O)N[C@H](C(=O)NCC(=O)N[C@@H](CC(N)=O)C(=O)O)[C@@H](C)O` [Peptide 213.2] (H-WARGCSTGN-OH), the figures for the EC50 at GPR55 [1] (setting [3]) and on GPR55 [2] (setting [4]) were 0.0676 nM and 0.724 nM, respectively.

For “DLLPPRTPPYQVHISHREARGPSFRICVDFLG [Peptide 213.5]”, the “DMR assays Emax (peak or AUC)” value at GPR55 [1] (receptor GPR55) is listed as -71711. Further, the “Internalization assays Emax (AUC)” value on GPR55 [2] (setting [7]) is 19.6.

On to “HSDGIFTDSYSRYRKQMAVKKYLAAVL [168 original]”, for which, on GPR55 [1] (receptor GPR55), the “DMR assays Emax (peak or AUC)” value stood at 312490. Further, the “Internalization assays Emax (AUC)” value on GPR55 [2] (setting [7]) is 32.4.

On to KRLGALFNPYFDPLQWKNSDFE [143 original], for which, on GPR55 [1] (receptor GPR55), the “DMR assays Emax (peak or AUC)” value worked out at 555860. For the same molecule, the “Internalization assays Emax (AUC)” value on GPR55 [2] (setting [7]) is 39.5.

As for KRYSRLDYLINGIYVDI [114 original], the “DMR assays Emax (peak or AUC)” value on GPR55 [1] (receptor GPR55) is on record as 619843. For the same molecule, the “Internalization assays Emax (AUC)” value at GPR55 [2] (setting [7]) was determined as 46.9.
